Source: patent publication US12410164B2, “Heterocyclic compounds and medical use thereof” (FONDAZIONE TELETHON, priority 2018, dated 2025)

The compounds below were run against F508del-CFTR (Homo sapiens, UniProt P13569, DEL508-508) (assay: HS-YFP kinetic fluorescence (iodide quenching rate) assay in CFBE41o− cells). Conditions: 50-500 nM, 1 and 10 μM, with and without VX-809 1 μM, FIG. 4.
Assay type: cell-based
Design: expressed in transfected cells; host or cells: CFBE41o- cells with expression of F508del-CFTR and HS-YFP (generated as in Sondo et al. 2011)
Outline: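 CFBE41o- cells co-expressing F508del-CFTR and HS-YFP, treated 24 h with compound (0.1-0.2% DMSO), then stimulated with 20 μM forskolin plus 50 μM genistein. Fluorescence was read for 14 s during NaI injection. Background-subtracted, normalized traces were fitted exponentially to give maximum quenching rate (QR).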

Chain of F508del-CFTR (P13569 with tags, fused parts or gaps DEL508-508): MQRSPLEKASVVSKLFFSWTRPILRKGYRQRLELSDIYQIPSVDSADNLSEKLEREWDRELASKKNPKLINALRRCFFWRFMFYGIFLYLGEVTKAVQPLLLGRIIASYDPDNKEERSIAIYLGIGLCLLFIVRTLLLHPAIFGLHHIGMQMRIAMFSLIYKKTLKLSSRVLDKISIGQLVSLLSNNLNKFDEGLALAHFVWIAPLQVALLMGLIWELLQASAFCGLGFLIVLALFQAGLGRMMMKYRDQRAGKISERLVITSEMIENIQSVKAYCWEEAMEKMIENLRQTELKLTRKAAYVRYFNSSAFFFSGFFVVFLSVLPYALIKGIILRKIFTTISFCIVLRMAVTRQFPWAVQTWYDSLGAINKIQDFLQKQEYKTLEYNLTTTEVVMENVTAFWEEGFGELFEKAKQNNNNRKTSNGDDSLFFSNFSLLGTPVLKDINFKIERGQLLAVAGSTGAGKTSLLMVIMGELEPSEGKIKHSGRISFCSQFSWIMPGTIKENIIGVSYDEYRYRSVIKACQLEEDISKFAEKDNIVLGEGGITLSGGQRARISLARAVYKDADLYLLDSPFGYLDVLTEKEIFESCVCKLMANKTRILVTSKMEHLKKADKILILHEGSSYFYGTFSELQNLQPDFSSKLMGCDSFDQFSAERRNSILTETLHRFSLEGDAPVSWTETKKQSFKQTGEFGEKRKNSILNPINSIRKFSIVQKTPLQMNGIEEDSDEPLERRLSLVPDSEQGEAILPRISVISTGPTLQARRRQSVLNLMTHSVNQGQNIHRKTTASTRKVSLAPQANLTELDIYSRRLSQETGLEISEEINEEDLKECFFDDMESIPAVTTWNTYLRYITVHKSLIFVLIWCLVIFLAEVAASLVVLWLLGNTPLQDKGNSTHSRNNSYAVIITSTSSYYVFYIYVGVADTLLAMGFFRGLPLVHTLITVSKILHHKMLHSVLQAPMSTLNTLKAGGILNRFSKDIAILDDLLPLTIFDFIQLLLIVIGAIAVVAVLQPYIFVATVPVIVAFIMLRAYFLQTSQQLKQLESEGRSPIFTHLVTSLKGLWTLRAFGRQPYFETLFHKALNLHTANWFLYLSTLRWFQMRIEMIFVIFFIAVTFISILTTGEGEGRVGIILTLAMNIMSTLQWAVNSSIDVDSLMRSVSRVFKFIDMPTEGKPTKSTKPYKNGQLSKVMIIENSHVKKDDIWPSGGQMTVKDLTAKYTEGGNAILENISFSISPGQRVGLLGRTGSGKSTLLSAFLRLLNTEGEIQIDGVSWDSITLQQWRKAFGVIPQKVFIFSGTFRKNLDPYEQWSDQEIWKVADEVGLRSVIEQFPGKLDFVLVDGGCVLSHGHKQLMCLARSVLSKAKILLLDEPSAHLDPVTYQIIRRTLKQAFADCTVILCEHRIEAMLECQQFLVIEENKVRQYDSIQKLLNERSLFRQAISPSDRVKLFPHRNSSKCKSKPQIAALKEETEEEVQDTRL

Row | SMILES | corrective activity of TMA
1 | Cc1cc(=O)oc2c1cc(C)c1occ(C)c12 [TMA, 4,6,4′-trimethylangelicin, reference compound] | ineffective at all concentrations

Same assay, conditions: Table 1; compound at 10 μM plus VX-809; (QRTOT − QRVX)/QRVX, HS-YFP assay

Row | AI (%) additivity index [%] | SMILES
2 | 277 | CC(C)OC(=O)c1c(Br)c2c(n1CC1CC1)-c1[nH]c(=O)c(S(=O)(=O)c3ccccc3)cc1CC2 [PP106, Propan-2-yl 7-(benzenesulfonyl)-3-bromo-1-(cyclopropylmethyl)-8-oxo-4,5,8,9-tetrahydro-1H-pyrrolo[3,2-h]quinoline-2-carboxylate]
3 | 335 | CC(C)OC(=O)c1cc2c(n1Cc1ccc(F)cc1)-c1[nH]c(=O)c(S(=O)(=O)c3ccccc3)cc1CC2 [PP107, Propan-2-yl 7-(benzenesulfonyl)-1-[(4-fluorophenyl)methyl]-8-oxo-4,5,8,9-tetrahydro-1H-pyrrolo[3,2-h]quinoline-2-carboxylate]
4 | 257 | CC(C)OC(=O)c1c(Br)c2c(n1Cc1ccc(F)cc1)-c1[nH]c(=O)c(S(=O)(=O)c3ccccc3)cc1CC2 [PP108, Propan-2-yl 7-(benzenesulfonyl)-3-bromo-1-[(4-fluorophenyl)methyl]-8-oxo-4,5,8,9-tetrahydro-1H-pyrrolo[3,2-h]quinoline-2-carboxylate]

Same assay, conditions: Table 3; compound at 10 μM plus VX-809; (QRTOT-QRVX)/QRVX

Row | AI additivity index [%] | SMILES
5 | 4 | CCOC(=O)c1c(Br)c2c(n1Cc1cccc(C)c1)-c1nc(N)ncc1CC2 [SVQ4, Ethyl 2-amino-7-bromo-9-[(3-methylphenyl)methyl]-6,9-dihydro-5H-pyrrolo[3,2-h]quinazoline-8-carboxylate]
6 | 98 | CCOC(=O)c1cc2c(n1Cc1ccc(C)cc1)-c1nc(NS(=O)(=O)c3ccccc3)ncc1CC2 [SVQ9, Ethyl 2-[(benzenesulfonyl)amino]-9-[(4-methylphenyl)methyl]-6,9-dihydro-5H-pyrrolo[3,2-h]quinazoline-8-carboxylate]
7 | 134 | CCOC(=O)c1c(Br)c2c(n1Cc1ccc(C)cc1)-c1nc(NS(=O)(=O)c3ccccc3)ncc1CC2 [SVQ10, Ethyl 2-[(benzenesulfonyl)amino]-7-bromo-9-[(4-methylphenyl)methyl]-6,9-dihydro-5H-pyrrolo[3,2-h]quinazoline-8-carboxylate]
8 | 151 | CCOC(=O)c1cc2c(n1Cc1cccc(C)c1)-c1nc(NS(=O)(=O)c3ccccc3)ncc1CC2 [SVQ11, Ethyl 2-[(benzenesulfonyl)amino]-9-[(3-methylphenyl)methyl]-6,9-dihydro-5H-pyrrolo[3,2-h]quinazoline-8-carboxylate]
9 | 152 | CCOC(=O)c1c(Br)c2c(n1Cc1cccc(C)c1)-c1nc(NS(=O)(=O)c3ccccc3)ncc1CC2 [SVQ12, Ethyl 2-[(benzenesulfonyl)amino]-7-bromo-9-[(3-methylphenyl)methyl]-6,9-dihydro-5H-pyrrolo[3,2-h]quinazoline-8-carboxylate]
10 | 86 | CCOC(=O)c1cc2c(n1Cc1ccc(C)c(C)c1)-c1nc(NS(=O)(=O)c3ccccc3)ncc1CC2 [SVQ13, Ethyl 2-[(benzenesulfonyl)amino]-9-[(3,4-dimethylphenyl)methyl]-6,9-dihydro-5H-pyrrolo[3,2-h]quinazoline-8-carboxylate]
11 | 128 | CCOC(=O)c1c(Br)c2c(n1Cc1ccc(C)c(C)c1)-c1nc(NS(=O)(=O)c3ccccc3)ncc1CC2 [SVQ14, Ethyl 2-[(benzenesulfonyl)amino]-7-bromo-9-[(3,4-dimethylphenyl)methyl]-6,9-dihydro-5H-pyrrolo[3,2-h]quinazoline-8-carboxylate]
12 | 100 | CCOC(=O)c1cc2c(n1Cc1ccc(Br)cc1)-c1nc(NS(=O)(=O)c3ccccc3)ncc1CC2 [SVQ15, Ethyl 2-[(benzenesulfonyl)amino]-9-[(4-bromophenyl)methyl]-6,9-dihydro-5H-pyrrolo[3,2-h]quinazoline-8-carboxylate]
13 | 98 | CCOC(=O)c1c(Br)c2c(n1Cc1ccc(Br)cc1)-c1nc(NS(=O)(=O)c3ccccc3)ncc1CC2 [SVQ16, Ethyl 2-[(benzenesulfonyl)amino]-7-bromo-9-[(4-bromophenyl)methyl]-6,9-dihydro-5H-pyrrolo[3,2-h]quinazoline-8-carboxylate]

Same assay, conditions: Table 4; compound at 10 μM plus VX-809; (QRTOT − QRVX)/QRVX

Row | AI (%) additivity index [%] | SMILES
14 | 19 | CCOC(=O)c1c(Br)cc2n1CCc1cc(S(=O)(=O)c3ccccc3)c(=O)[nH]c1-2 [QZN2, Ethyl 3-(benzenesulfonyl)-9-bromo-2-oxo-1,2,5,6-tetrahydropyrrolo[1,2-h][1,7]naphthyridine-8-carboxylate]
15 | 19 | CCOC(=O)c1ccc2n1CCCc1cc(S(=O)(=O)c3ccccc3)c(=O)[nH]c1-2 [QZN5, Ethyl 3-(benzenesulfonyl)-2-oxo-1,5,6,7-tetrahydro-2H-pyrido[2,3-c]pyrrolo[1,2-a]azepine-9-carboxylate]
16 | 136 | CCOC(=O)c1c(Br)cc2n1CCCc1cc(S(=O)(=O)c3ccccc3)c(=O)[nH]c1-2 [QZN6, Ethyl 3-(benzenesulfonyl)-10-bromo-2-oxo-1,5,6,7-tetrahydro-2H-pyrido[2,3-c]pyrrolo[1,2-a]azepine-9-carboxylate]
17 | 101 | CC(C)OC(=O)c1c(Br)cc2n1CCc1cc(S(=O)(=O)c3ccccc3)c(=O)[nH]c1-2 [QZN10, Propan-2-yl 3-(benzenesulfonyl)-9-bromo-2-oxo-1,2,5,6-tetrahydropyrrolo[1,2-h][1,7]naphthyridine-8-carboxylate]
18 | 8 | CC(C)OC(=O)c1ccc2n1CCCc1cc(S(=O)(=O)c3ccccc3)c(=O)[nH]c1-2 [QZN13, Propan-2-yl 3-(benzenesulfonyl)-2-oxo-1,5,6,7-tetrahydro-2H-pyrido[2,3-c]pyrrolo[1,2-a]azepine-9-carboxylate]
19 | 141 | CC(C)OC(=O)c1c(Br)cc2n1CCCc1cc(S(=O)(=O)c3ccccc3)c(=O)[nH]c1-2 [QZN14, Propan-2-yl 3-(benzenesulfonyl)-10-bromo-2-oxo-1,5,6,7-tetrahydro-2H-pyrido[2,3-c]pyrrolo[1,2-a]azepine-9-carboxylate]

Same assay, conditions: Table 5; compound at 10 μM plus VX-809; (QRTOT-QRVX)/QRVX

Row | AI (%) additivity index [%] | SMILES
20 | 18 | CCOC(=O)c1ccc2n1CCc1cnc(NC3CCCC3)nc1-2 [QZQ14, Ethyl 2-(cyclopentylamino)-5,6-dihydropyrimido[5,4-g]indolizine-8-carboxylate]
21 | 5 | CC(C)OC(=O)c1ccc2n1CCc1cnc(NC3CCCC3)nc1-2 [QZQ20, Propan-2-yl 2-(cyclopentylamino)-5,6-dihydropyrimido[5,4-g]indolizine-8-carboxylate]
22 | 6 | CC(C)OC(=O)c1ccc2n1CCCc1cnc(N)nc1-2 [QZQ21, Propan-2-yl 2-amino-6,7-dihydro-5H-pyrimido[4,5-c]pyrrolo[1,2-a]azepine-9-carboxylate]
23 | 2 | CC(=O)Nc1ncc2c(n1)-c1ccc(C(=O)OC(C)C)n1CCC2 [QZQ26, Propan-2-yl 2-acetamido-6,7-dihydro-5H-pyrimido[4,5-c]pyrrolo[1,2-a]azepine-9-carboxylate]

Same assay, conditions: Table 6; compound at 10 μM plus VX-809; (QRTOT-QRVX)/QRVX

Row | AI (%) additivity index [%] | SMILES
24 | 88 | CCOC(=O)c1nn(Cc2ccc(C)cc2)c2c1CCc1cc(S(=O)(=O)c3ccccc3)c(=O)[nH]c1-2 [PZ1, Ethyl 7-(benzenesulfonyl)-1-[(4-methylphenyl)methyl]-8-oxo-4,5,8,9-tetrahydro-1H-pyrazolo[4,3-h]quinoline-3-carboxylate]
25 | 163 | CCOC(=O)c1nn(Cc2cccc(C)c2)c2c1CCc1cc(S(=O)(=O)c3ccccc3)c(=O)[nH]c1-2 [PZ3, Ethyl 7-(benzenesulfonyl)-1-[(3-methylphenyl)methyl]-8-oxo-4,5,8,9-tetrahydro-1H-pyrazolo[4,3-h]quinoline-3-carboxylate]
26 | 64 | CCOC(=O)c1nn(Cc2ccc(Br)cc2)c2c1CCc1cc(S(=O)(=O)c3ccccc3)c(=O)[nH]c1-2 [PZ5, Ethyl 7-(benzenesulfonyl)-1-[(4-bromophenyl)methyl]-8-oxo-4,5,8,9-tetrahydro-1H-pyrazolo[4,3-h]quinoline-3-carboxylate]
27 | 104 | CCOC(=O)c1nn(Cc2ccc(C)c(C)c2)c2c1CCc1cc(S(=O)(=O)c3ccccc3)c(=O)[nH]c1-2 [PZ7, Ethyl 7-(benzenesulfonyl)-1-[(3,4-dimethylphenyl)methyl]-8-oxo-4,5,8,9-tetrahydro-1H-pyrazolo[4,3-h]quinoline-3-carboxylate]
28 | 21 | CCOC(=O)c1c2c(nn1Cc1ccc(C)c(C)c1)-c1[nH]c(=O)c(S(=O)(=O)c3ccccc3)cc1CC2 [PZ8, Ethyl 7-(benzenesulfonyl)-2-[(3,4-dimethylphenyl)methyl]-8-oxo-4,5,8,9-tetrahydro-2H-pyrazolo[4,3-h]quinoline-3-carboxylate]
